Reference: US20250074901A1, “NOVEL HETEROARYL COMPOUNDS” (ICAGEN, LLC, priority 2021, published 2025)

Target: T1, Kv7.2 (Homo sapiens, UniProt O43526)
T1 construct: expressed in transfected cells
Test: Activation of Kv7.2 (in vitro assay, concentration response curve)
Assay type: cell-based
Settings: for Emax: Kv7.2 activation max %; for EC50: activation of Kv7.2
Outline: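 Agonist activity was measured in vitro across a range of compound concentrations and plotted as a sigmoidal concentration–response curve. EC50 is the concentration giving 50% of that compound's own maximal response (Emax).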

| Compound | Emax | EC50 |
| --- | --- | --- |
| O=C(NCc1ccnc(OCC(F)(F)F)c1)NC1CC(C2CC2)C1 (stereo not shown) [Example 235, 1-(3-cyclopropylcyclobutyl)-3-[[2-(2,2,2-trifluoroethoxy)pyridin-4-yl]methyl]urea] | 88% | 80 nM |
| O=C(NCc1ccnc(OC(F)F)c1)NCC1(C(F)(F)F)CCC1 [Example 237, 1-[[2-(difluoromethoxy)pyridin-4-yl]methyl]-3-[[1-(trifluoromethyl)cyclobutyl]methyl]urea] | 54% | 160 nM |
| O=C(NCc1ccnc(OCC(F)(F)F)c1)N[C@@H]1C[C@@H]2[C@H](C1)C2(F)F [Example 238, 1-[(1R,3s,5S)-6,6-difluoro-3-bicyclo[3.1.0]hexanyl]-3-[[2-(2,2,2-trifluoroethoxy)pyridin-4-yl]methyl]urea] | 79% | 60 nM |
| O=C(NCc1ccnc(OC(F)F)c1)N[C@H]1CC[C@H](F)C1 [Example 239, 1-[[2-(difluoromethoxy)pyridin-4-yl]methyl]-3-[(1S,3S)-3-fluorocyclopentyl]urea] | 57% | 440 nM |
| O=C(Nc1ccc(F)c(F)c1)NC(CO)c1ccnc(OC(F)F)c1 (stereo not shown) [Example 240, 1-[1-[2-(difluoromethoxy)pyridin-4-yl]-2-hydroxyethyl]-3-(3,4-difluorophenyl)urea] | 55% | 300 nM |
| O=C(NCc1ccnc(OC(F)F)c1)N[C@H](C1CCC1)C(F)(F)F [Example 241, 1-[(1R)-1-cyclobutyl-2,2,2-trifluoroethyl]-3-[[2-(difluoromethoxy)pyridin-4-yl]methyl]urea] | 68% | 70 nM |
| O=C(NCc1ccnc(OC(F)F)c1)N[C@@H](C1CCC1)C(F)(F)F [Example 242, 1-[(1S)-1-cyclobutyl-2,2,2-trifluoroethyl]-3-[[2-(difluoromethoxy)pyridin-4-yl]methyl]urea] | 51% | 750 nM |
| O=C(NCc1ccnc(OC(F)F)n1)N[C@H]1C[C@H](C(F)(F)F)C1 [Example 243, 1-[[2-(difluoromethoxy)pyrimidin-4-yl]methyl]-3-[(1r,3r)-3-(trifluoromethyl)cyclobutyl]urea] | 42% | 760 nM |
| O=C(NCc1ccnc(OC(F)F)c1)Nc1cc(F)ccc1F [Example 244, 1-[[2-(difluoromethoxy)pyridin-4-yl]methyl]-3-(2,5-difluorophenyl)urea] | 50% | 250 nM |
| O=C(NCc1ccnc(OCC(F)(F)F)c1)Nc1cc(F)ccc1F [Example 245, 1-(2,5-difluorophenyl)-3-[[2-(2,2,2-trifluoroethoxy)pyridin-4-yl]methyl]urea] | 54% | 50 nM |
| O=C(NCc1ccnc(OC(F)F)c1)NC1(C23CC(C2)C3)CC1 [Example 246, 1-[1-(1-bicyclo[1.1.1]pentanyl)cyclopropyl]-3-[[2-(difluoromethoxy)pyridin-4-yl]methyl]urea] | 60% | 540 nM |
| O=C(NCc1ccnc(OC(F)F)c1)Nc1cccc(F)c1F [Example 247, 1-[[2-(difluoromethoxy)pyridin-4-yl]methyl]-3-(2,3-difluorophenyl)urea] | 53% | 90 nM |
| O=C(NCc1ccnc(OCC(F)(F)F)c1)Nc1cccc(F)c1F [Example 248, 1-(2,3-difluorophenyl)-3-[[2-(2,2,2-trifluoroethoxy)pyridin-4-yl]methyl]urea] | 62% | 140 nM |
| O=C(NCc1ccnc(OCF)c1)Nc1ccc(F)c(F)c1 [Example 249, 1-(3,4-difluorophenyl)-3-[[2-(fluoromethoxy)pyridin-4-yl]methyl]urea] | 43% | 260 nM |
| O=C(NCc1ccnc(OC(F)F)c1)N[C@@H]1CCC[C@H](C(F)(F)F)C1 [Example 250, 1-[[2-(difluoromethoxy)pyridin-4-yl]methyl]-3-[(1R,3S)-3-(trifluoromethyl)cyclohexyl]urea] | 75% | 120 nM |
| [2H]C([2H])(NC(=O)NC12CCC(F)(CC1)CC2)c1ccnc(OC(F)F)c1 [Example 251, 1-[dideuterio-[2-(difluoromethoxy)pyridin-4-yl]methyl]-3-(4-fluoro-1-bicyclo[2.2.2]octanyl)urea] | 60% | 130 nM |
| O=C(NCc1ccnc(OC(F)F)c1)NCC(C(F)(F)F)C(F)(F)F [Example 252, 1-[[2-(difluoromethoxy)pyridin-4-yl]methyl]-3-[3,3,3-trifluoro-2-(trifluoromethyl)propyl]urea] | 73% | 720 nM |
| O=C(NCc1ccnc(OC(F)F)c1)NC(C1CC1)C1CC1 [Example 253, 1-(dicyclo-propylmethyl)-3-[[2-(difluoromethoxy)pyridin-4-yl]methyl]urea] | 70% | 320 nM |
| O=C(NCc1ccnc(OCC(F)(F)F)c1)NC1(C2CC(F)(F)C2)CC1 [Example 254, 1-[1-(3,3-difluorocyclobutyl)cyclopropyl]-3-[[2-(2,2,2-trifluoroethoxy)pyridin-4-yl]methyl]urea] | 40% | 1010 nM |

| Compound | Emax | EC50 |
| --- | --- | --- |
| O=C(Nc1cc(F)cc(F)c1)NC(CO)c1ccnc(OCC(F)(F)F)c1 (stereo not shown) [Example 256, 1-(3,5-difluorophenyl)-3-[2-hydroxy-1-[2-(2,2,2-trifluoroethoxy)pyridin-4-yl]ethyl]urea] | 84% | 30 nM |
| O=C(NCc1ccnc(OCC(F)(F)F)c1)N[C@H](C1CC1)C(F)(F)F [Example 257, 1-[(1R)-1-cyclopropyl-2,2,2-trifluoroethyl]-3-[[2-(2,2,2-trifluoroethoxy)pyridin-4-yl]methyl]urea] | 61% | 240 nM |
| O=C(NCc1ccnc(OC(F)F)c1)NC1COC(C(F)(F)F)C1 (stereo not shown) [Example 258, 1-[[2-(difluoromethoxy)pyridin-4-yl]methyl]-3-[5-(trifluoromethyl)oxolan-3-yl]urea] | 53% | 500 nM |
| O=C(Nc1cccc(Cl)c1)NC(CO)c1ccnc(OCC(F)F)c1 (stereo not shown) [Example 259, 1-(3-chlorophenyl)-3-[1-[2-(2,2-difluoroethoxy)pyridin-4-yl]-2-hydroxyethyl]urea] | 63% | 240 nM |
| O=C(NCc1ccnc(SC(F)F)c1)N[C@H]1C[C@H](C(F)(F)F)C1 [Example 260, 1-[[2-(difluoro-methylsulfanyl)pyridin-4-yl]methyl]-3-[(1r,3r)-3-(trifluoromethyl)cyclobutyl]urea] | 51% | 370 nM |
| Cc1cc(NC(=O)NCc2ccnc(OC(F)F)c2)ccc1F [Example 261, 1-[[2-(difluoromethoxy)pyridin-4-yl]methyl]-3-(4-fluoro-3-methylphenyl)urea] | 40% | 70 nM |
| O=C(NCc1ccnc(OC(F)F)c1)Nc1cccc(OC(F)F)c1 [Example 262, 1-[3-(difluoromethoxy)phenyl]-3-[[2-(difluoromethoxy)pyridin-4-yl]methyl]urea] | 65% | 3510 nM |
| O=C(NCc1ccnc(OC(F)F)c1)NC1CCC(OC(F)F)C1 (stereo not shown) [Example 264, 1-[3-(difluoromethoxy)cyclopentyl]-3-[[2-(difluoromethoxy)pyridin-4-yl]methyl]urea] | 49% | 430 nM |
| O=C(NCc1ccnc(OC(F)F)c1)N[C@H]1C[C@@H](OC(F)F)C1 [Example 265, 1-[(1s,3s)-3-(difluoromethoxy)cyclobutyl]-3-[[2-(difluoromethoxy)pyridin-4-yl]methyl]urea] | 47% | 470 nM |
| O=C(NCc1ccnc(OC(F)F)c1)N[C@H]1CC[C@H](OC(F)F)CC1 [Example 266, 1-[(1r,4r)-4-(difluoromethoxy)cyclohexyl]-3-[[2-(difluoromethoxy)pyridin-4-yl]methyl]urea] | 49% | 300 nM |
| O=C(NCc1ccnc(OC(F)F)c1)NC1CC(OC(F)(F)F)C1 (stereo not shown) [Example 267, 1-[[2-(difluoromethoxy)pyridin-4-yl]methyl]-3-[3-(trifluoromethoxy)cyclobutyl]urea] | 51% | 290 nM |
| CC(CNC(=O)NCc1ccnc(OC(F)F)c1)OC(F)F (stereo not shown) [Example 268, 1-[2-(difluoromethoxy)propyl]-3-[[2-(difluoromethoxy)pyridin-4-yl]methyl]urea] | 39% | 1880 nM |
| O=C(NCc1ccnc(OCC(F)(F)F)c1)N[C@H]1C[C@@H](F)C1 [Example 269, 1-((1s,3s)-3-fluorocyclobutyl)-3-[[2-(2,2,2-trifluoroethoxy)pyridin-4-yl]methyl]urea] | 46% | 350 nM |
| O=C(Nc1cccc(Cl)c1F)NC(CO)c1ccnc(OC(F)F)c1 (stereo not shown) [Example 270, 1-(3-chloro-2-fluorophenyl)-3-[1-[2-(difluoromethoxy)pyridin-4-yl]-2-hydroxyethyl]urea] | 65% | 170 nM |
| O=C(NCc1ccnc(OC(F)F)c1)N[C@H]1[C@@H]2CC(F)(F)C[C@@H]21 [Example 271, 1-[[2-(difluoromethoxy)pyridin-4-yl]methyl]-3-[rac-(1R,5S,6R)-3,3-difluoro-6-bicyclo[3.1.0]hexanyl]urea] | 42% | 340 nM |
| O=C(NCc1ccnc(OC(F)F)c1)Nc1ccc(F)c(F)c1F [Example 272, 1-[[2-(difluoromethoxy)pyridin-4-yl]methyl]-3-(2,3,4-trifluorophenyl)urea] | 44% | 910 nM |
| O=C(NCc1ccnc(OC(F)F)c1)N[C@@H](CC(F)(F)F)C(F)(F)F [Example 273, 1-[[2-(difluoromethoxy)pyridin-4-yl]methyl]-3-[(2S)-1,1,1,4,4,4-hexafluorobutan-2-yl]urea] | 48% | 890 nM |
| O=C(NCc1ccnc(CC(F)(F)F)c1)Nc1ccc(F)c(F)c1 [Example 274, 1-(3,4-difluorophenyl)-3-[[2-(2,2,2-trifluoroethyl)pyridin-4-yl]methyl]urea] | 48% | 360 nM |
| O=C(NCc1ccnc(CC(F)(F)F)c1)Nc1cccc(Cl)c1 [Example 275, 1-(3-chlorophenyl)-3-[[2-(2,2,2-trifluoroethyl)pyridin-4-yl]methyl]urea] | 59% | 550 nM |
